# Data as given in patent publication US4250321A, “1-Descarboxy-1-ketoester(ketoacid)-protaglandins” (American Cyanamid Company, priority 1979, dated 1981).
# Read-outs that look alike come from different tables or passages of the source.
# Tests used:
# Type in all cases: in vivo
# [1] = test system: bronchospasms elicited by intravenous injections of 5-hydroxytryptamine, histamine or acetylcholine; assay: Bronchodilator activity in guinea pigs by the Konzett procedure; conditions: Cavia porcellus, guinea pig, three logarithmic cumulative intravenous doses
# Description: The compounds of this invention are useful as bronchodilators for the treatment of asthma and chronic bronchitis. Bronchodilator activity is determined in guinea pigs against bronchospasms elicited by intravenous injections of 5-hydroxytryptamine, histamine or acetylcholine by the Konzett procedure. [See J. Lulling, P. Lievens, F. El Sayed and J. Pringnot, Arzneimittel-Forschung, 18, 955 (1968).].
# In Table which follows bronchodilator activity for representative compounds of this invention against one or more of three spasmogenic agents is expressed as an ED50 determined from the results obtained with three logarithmic cummulative intravenous doses. In this assay, these compounds of this invention provide an effect of longer duration than does natural 1-PGE1 or 1-PGE2.
# [2] = test system: histamine-stimulated gastric acid secretion; assay: Gastric acid secretion in the dog, gastric fistula; conditions: 5 μg/Kg by stomach tube, i.v. histamine 40 μg/kg/hr
# Description: (§1) Experiments are carried out on six fasted female mongrel dogs, 3-7 years of age. Each had been provided with either a gastric fistula (4 dogs) or a Heidenhain pouch (2 dogs) using standard surgical techniques. Briefly, spool shaped cannulae of stainless steel (gastric fistual preparation) or titanium (Heidenhain pouch preparation) were inserted into narrow slits in the most dependent portion of the vertical stomach and retained in place by a purse-string suture. In the Heidenhain pouch preparation the slit made in a denervated sleeve of stomach which was isolated along the greater curvature. The cannulae were exteriorized through a trocar wound in the abdomen just left of midline and, as the purse string was tightened about the cannulae, the edges of the wound were inverted.
# The drug is administered at zero time through the smaller lumen of a double lumen Salen Sump Tube which has been placed transorally into the animal's stomach. The length is adjusted to reach from the mouth just to the cannula site. Five ml of saline are then flushed through the smaller lumen, followed by 5 ml of air. Immediately following 20-25 ml of saline are placed into the stomach through the larger lumen of the double lumen tube and the tube withdrawn.
# Thirty minutes after the drug is administered the gastric annula is opened, irrigated rapidly with 25-30 ml of saline 4 separate times and allowed to drain for 15 minutes.
# At the end of the drainage period, the intravenous histamine infusion is started ([…]) and the first 15 minutes collection period of gastric secretions via the cannula is begun. The collection is changed every 15 minutes. The volume of each 15 minute sample is measured and an aliquot titrated to pH 7 with 0.1 N NaOH using a Radiometer automatic titrator.
# ^1 Secretion is stimulated with intravenous histamine, 40 μg/kg/hr
# g/Kg) 45 minutes after administration of compound (5μg/Kg)? or vehicle
# (control) by stomach tube. Secretions are collected from fistula annula.
# [3] = test system: histamine-stimulated gastric acid secretion; assay: Gastric acid secretion in the dog, Heidenhain pouch; conditions: 5 μg/kg by stomach tube, i.v. histamine 40 μg/kg/hr
# Description: as §1
# The intravenous histamine infusion ([…]) is started. At the same time, the first gastric secretion collection is begun. these secretions are collected by gravity drainage through the Heidenhain pouch cannula. Separate gastric samples are collected every fifteen minutes. When the volumes of two successive samples are within 10% of each other (usually occuring by the end of the fourth period--after one hour of histamine infusion) the drug is given to the animal (time 0). The latter of the two samples is considered to be the control for that particular experiment. The drug is administered through the smaller lumen of a double lumen Salem Sump Tube which has been cut to a length equal to the mouth to stomach distance of the dog. Following administration of the drug, the narrow lumen is flushed first with […], followed by 5 ml of air. Twenty-five to 30 ml of saline is then introduced into the stomach through the larger lumen and the tube withdrawn. (Note: Samples of gastric juice are taken from the pouch, drug is administered into the main stomach). Aliquots of each 15 minute gastric sample are titrated to pH 7 with 0.1 N NaOH using a Radiometer automatic titrator.
# ^2 Secretion is stimulated with intravenous histamine, 40 μg/kg/hr
# and samples are collected through the pouch cannula at 15 minute
# intervals. When the volume of two successive samples are within 10% of
# each other, compound is administered (5 μg/kg) by stomach tube. The en
# of the latter two periods is considered as 0 time (control).
# [4] = bronchospasm by 5-hydroxytryptamine, read-out: ED50 5HT
# [5] = bronchospasm by acetylcholine, read-out: ED50 ACH
# [6] = bronchospasm by histamine, read-out: ED50 HIST.
SMILES,"ED50 [1, 4]","ED50 [1, 5]","ED50 [1, 6]","% INHIBITION ACID SECRETION, 45-60 minutes after compound [2]","% INHIBITION ACID SECRETION, 60-75 minutes after compound [2]","% INHIBITION ACID SECRETION, 75-90 minutes after compound [2]","% INHIBITION ACID SECRETION, 90-105 minutes after compound [2]","% INHIBITION ACID SECRETION, 105-120 minutes after compound [2]","% INHIBITION ACID SECRETION, 0-15 minutes after compound ([3]; 0-15 min)","% INHIBITION ACID SECRETION, 15-30 minutes after compound ([3]; 15-30 min)","% INHIBITION ACID SECRETION, 30-45 minutes after compound ([3]; 30-45 min)","% INHIBITION ACID SECRETION, 45-60 minutes after compound ([3]; 45-60 min)","% INHIBITION ACID SECRETION, 60-75 minutes after compound ([3]; 60-75 min)"
"CCCCC(C)(O)C/C=C/[C@H]1[C@H](O)CC(=O)[C@@H]1C/C=C\CCCC(=O)C(=O)OCC (relative stereo) [dl-1,9-Dioxo-1-carbethoxy-11α,16-dihydroxy-16-methyl-5-cis-13-trans-prostadiene]",9.51 µg/kg,5.92 µg/kg,9.31 µg/kg,96%,62%,59%,56%,47%,–,–,–,–,–
"C=CC(O)(C/C=C/[C@H]1[C@H](O)CC(=O)[C@@H]1C/C=C\CCCC(=O)C(=O)OCC)CCCC (relative stereo) [dl-1,9-Dioxo-1-carbethoxy-11α,16-dihydroxy-16-vinyl-5-cis-13-trans-prostadiene]",0.665 µg/kg,3.41 µg/kg,2.26 µg/kg,–,–,–,–,–,–,–,–,–,–
"CCCCC(C)(O)C/C=C/[C@H]1[C@H](O)CC(=O)[C@@H]1CCCCCCC(=O)C(=O)OCC (relative stereo) [dl-1,9-dioxo-1-carbethoxy-11,16-dihydroxy-16-methyl-13-trans-prostene]",–,–,–,97%,91%,76%,72%,56%,20%,28%,34%,21%,12%
"CCCCCC(C)(O)/C=C/[C@H]1[C@H](O)CC(=O)[C@@H]1CCCCCCC(=O)C(=O)OCC (relative stereo) [dl-1,9-dioxo-1-carbethoxy-11α,15-dihydroxy-15-methyl-13-trans-prostene]",4.22 µg/kg,–,6.05 µg/kg,–,–,–,–,–,–,–,–,–,–
